# Assay results from US4211764A, “Gastric secretion stimulation with 2-amino-5-(2-aminoethyl)-1,3,4-thiadiozole” (priority 1978, dated 1980).
# Counter-ions that a name gives are not always drawn. Like-named read-outs stand apart in the source and are kept apart here.
# Assays:
# [1] = test system: gastric secretion; details: cited from earlier work; for secretory effect per os: introduced per os, clinical conditions, inactivated by the liver and enzymes
# [2] = test system: gastric secretion; assay type: in vivo, human; details: hypodermic or intramuscular
# Source text: (§1) Special attention was paid to side effects and the reproductibility of the secretory response after repeated administrations of the drug.
# The clinical investigation also helped to determine effective doses of the proposed preparation for submaximum and maximum tests and different forms of administration.
# [3] = Physical properties of the dichlorohydrate; assay type: physicochemical
# Source text: The dichlorohydrate of this compound is white-yellowish crystalline powder. […] Solution of this compound in 0.01 M of hydrochloric acid at a concentration of 10^-4 M has a characteristic absorption spectrum in the UV range with a maximum of 245±±1 nanometers.
# [4] = cited from earlier work
# [5] = target: H2 -receptors (Rattus norvegicus, UniProt P25102); details: uterus horn
# Sequence of H2 -receptors (Rattus norvegicus, UniProt P25102) (P25102 whole entry): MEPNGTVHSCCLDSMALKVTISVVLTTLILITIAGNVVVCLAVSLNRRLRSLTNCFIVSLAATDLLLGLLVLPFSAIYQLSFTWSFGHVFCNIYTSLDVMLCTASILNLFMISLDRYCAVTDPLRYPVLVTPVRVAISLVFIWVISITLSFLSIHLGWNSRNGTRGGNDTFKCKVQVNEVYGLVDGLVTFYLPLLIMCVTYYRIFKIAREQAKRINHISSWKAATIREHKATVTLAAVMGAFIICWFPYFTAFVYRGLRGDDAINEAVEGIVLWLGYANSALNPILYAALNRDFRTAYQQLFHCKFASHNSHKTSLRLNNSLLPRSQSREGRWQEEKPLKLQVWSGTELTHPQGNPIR
# Protocol: Contractions of an isolated horn of uterus of a rat due to the effect of acetylcholine in a concentration of 1.10^-6 M were recorded on a paper tape.
# [6] = test system: arterial pressure; assay: Arterial pressure in anesthetized cats; details: in vivo, iv, 0.1 mg/kg
# Protocol: These experiments were performed on 11 cats weighing 2.5 to 4.0 kg and anesthetized with urethane-chlorazol mixture containing 60 mg/kg of chlorazol and 600 mg/kg of urethane. The arterial pressure was measured in the common carotid artery with the aid of a mercury pressure gauge.
# [7] = test system: dog's stomach; assay: Gastric secretion in dogs, administration per os; assay type: in vivo; details: thidazine 100 mg per head (parenterally and per os), histamine 10 and 20 mg, histalog 50 and 100 mg
# Protocol: (§2) Chronic experiments were performed on male dogs weighing 20 to 25 kg and having a gastric fistula; prior to experiments, the animals were starved for 18 hours.
# [8] = target: H2 -ceptors (Canis lupus familiaris, UniProt P17124); assay: Gastric secretion in dogs with gastric fistula, intramuscular injection; details: animal (dog)
# Sequence of H2 -ceptors (P17124 whole entry): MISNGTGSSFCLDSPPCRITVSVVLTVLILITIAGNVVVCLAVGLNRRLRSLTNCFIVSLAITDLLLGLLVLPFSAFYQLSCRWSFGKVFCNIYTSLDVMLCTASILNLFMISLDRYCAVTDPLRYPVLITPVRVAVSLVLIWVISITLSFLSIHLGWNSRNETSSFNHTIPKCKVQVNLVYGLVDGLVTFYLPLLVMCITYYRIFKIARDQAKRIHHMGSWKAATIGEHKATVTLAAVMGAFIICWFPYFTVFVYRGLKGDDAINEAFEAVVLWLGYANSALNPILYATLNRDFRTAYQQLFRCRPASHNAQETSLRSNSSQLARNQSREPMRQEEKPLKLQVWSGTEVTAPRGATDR
# Protocol: as §2
# The gastric juice was analyzed for titratable acidity and proteolytic activity. The hydrochloric acid output was calculated in milliequivalents (mEq) and that of pepsin in milligrams.
# [9] = target: T1, H2 -receptors (Cavia porcellus, UniProt P47747); assay: Heart rate of isolated auricles; details: isolated guinea pig auricles; read-out: pD2 value, H2 -receptors (heart rate) (converted)
# T1 construct: from tissue; host or cells: isolated guinea pig auricles (atria)
# T1 sequence (P47747 whole entry): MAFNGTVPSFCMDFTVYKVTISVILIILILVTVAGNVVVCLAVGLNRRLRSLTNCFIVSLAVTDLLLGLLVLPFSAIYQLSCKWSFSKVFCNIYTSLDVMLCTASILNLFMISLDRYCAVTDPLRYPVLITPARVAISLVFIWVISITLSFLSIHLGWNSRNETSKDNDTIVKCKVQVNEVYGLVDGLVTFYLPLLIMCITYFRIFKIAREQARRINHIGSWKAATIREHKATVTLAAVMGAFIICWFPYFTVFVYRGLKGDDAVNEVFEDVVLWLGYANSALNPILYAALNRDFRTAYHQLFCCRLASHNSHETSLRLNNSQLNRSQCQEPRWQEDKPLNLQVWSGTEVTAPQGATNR
# Protocol: Changes in the heart rate were measured, dose-response curves were plotted, and pD2 values were calculated.
# [10] = target: T2, H1 -receptors (Cavia porcellus, UniProt P31389); assay: Contraction of isolated ileum; details: guinea pig ileum; read-out: pD2 value in relation to H1 -receptors (converted)
# T2 construct: from tissue; host or cells: isolated guinea pig ileum
# T2 sequence (P31389 whole entry): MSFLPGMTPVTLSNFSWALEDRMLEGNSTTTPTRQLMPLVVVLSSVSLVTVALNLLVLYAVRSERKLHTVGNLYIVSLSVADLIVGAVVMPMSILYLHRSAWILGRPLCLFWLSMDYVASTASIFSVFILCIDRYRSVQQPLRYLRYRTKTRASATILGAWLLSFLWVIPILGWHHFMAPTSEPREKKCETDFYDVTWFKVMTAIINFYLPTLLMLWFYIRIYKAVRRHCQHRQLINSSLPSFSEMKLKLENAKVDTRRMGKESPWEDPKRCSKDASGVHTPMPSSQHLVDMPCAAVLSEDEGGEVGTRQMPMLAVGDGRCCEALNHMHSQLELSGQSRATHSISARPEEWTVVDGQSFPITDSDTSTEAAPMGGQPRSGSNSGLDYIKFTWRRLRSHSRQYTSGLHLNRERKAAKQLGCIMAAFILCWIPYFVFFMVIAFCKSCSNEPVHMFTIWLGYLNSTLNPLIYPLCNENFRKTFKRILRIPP
# [11] = test system: cardiovascular system (hypotension); details: relative to histamine; cited from earlier work
# [12] = test system: arterial pressure; assay: Arterial pressure in rabbits; details: intravenous, thidazine 0.1 mg/kg, equimolar doses of histamine and histalog
# Protocol: In a series of experiments of 18 rabbits weighing 2.5 to 3.5 kg, each having the common carotid artery in a cutaneous flap, the preparations were injected intravenously.
# [13] = test system: gastric secretion of patients with duodenal ulceration; assay: Clinical comparison in patients with duodenal ulceration; assay type: in vivo, human
# Source text: as §1
# Histamine and Pentagastrin Upon Main Gastric Secretion
# Characteristics of Patients With Duodenal Ulceration
# [14] = test system: gastric secretion of patients; assay: Clinical comparison of thidazine with simple histamine test; assay type: in vivo, human; details: 20 patients; thidazine 1.5 mg/kg parenteral, histamine 0.01 mg/kg; >0.05
# Source text: as §1
# [15] = test system: total acidity; assay: Clinical reproducibility of secretory response (total acidity); assay type: in vivo, human; details: 0.01 mg/kg hypodermic
# Source text: as §1
# Reproducibility of Secretory Response to Introduction
# of Thidazine and Histamine with Reference to Total
# Acidity Values (each group of patients includes 10 persons)
# ^(x) Percentage of difference is the relationship of the difference
# between the total acidity values registered in the first and second tests
# of a patient to the greater of these values.
# [16] = test system: H2 -receptors; assay: Prevention of thidazine-induced gastric secretion by an H2 -antagonist; assay type: in vivo, dog; details: dogs, methiamide 30 mg/kg before thidazine 2 mg/kg intramuscular
# [17] = test system: gastric secretion of patients of middle age group; assay: Clinical test: effects of maximum doses upon gastric secretion of patients; assay type: in vivo, human; details: for Hourly HCl output: 15 observations
# Source text: as §1
smiles,measurement,setting,value
Cc1[nH]cnc1CCN [5-methylhistamine],secretory effect per os,[1],no secretory effect is produced
"Cl.Cl.NCCc1c[nH]cn1 [Histamine dichloride, reference compound]",dose for maximum secretion test,[2],0.025 mg/kg
same,dose for submaximum secretion test,[2],0.008 mg/kg
"NCCc1nnc(N)s1 [dihydrochloride of 2-amino-5-(2-aminoethyl)-1,3,4-thiadiazole]",stability of aqueous solution,[3],stable over prolonged periods of time
same,hygroscopicity,[3]; powder,poor hygroscopicity
same,reaction (acidity) of solution,[3]; solutions before neutralization to pH 6 to 7,strongly acidic reaction
same,solubility in water,[3]; water,readily soluble in water
"NCCc1cc[nH]n1 [histalog, 3-(5)-(2-aminoethyl)pyrazole, reference compound]",side effects,[4]; in vivo,side effects are observed far less frequently than in the case of histamine
same,Emax,[5],16%
same,secretory response of the stomach,"[1]; humans, parenteral, 1 to 5 mg/kg",maximum secretory response of the stomach
same,secretory effect per os,[1],no secretory effect is produced
same,"capability of stimulating gastric secretion, times less effective than histamine",[1]; relative to histamine,70 times
same,reduction of arterial pressure,[6],30 mm of mercury
same,gastric secretion after administration per os,[7],no gastric secretion
same,production of maximum level of hydrochloric acid secretion in the stomach,[8],can produce a maximum level of hydrochloric acid secretion
same,EC50,[9],15.8 µM
same,EC50,[10],58.9 µM
same,dose for maximum secretion test,[2],1.7 mg/kg
same,dose for submaximum secretion test,[2],0.9 mg/kg
same,"hypotensive effect, times as low as that of histamine",[11],700 times
"NCCc1c[nH]cn1 [histamine, reference compound]",side effects,[4]; patients,"reddening of the skin, nausea, vomiting, headache, dizziness, bronchospasm, edema of the rima vocalis, hypotension, and shocks"
same,Emax,[5],100%
same,secretory effect per os,[1],no secretory effect is produced
same,reduction of arterial pressure,[6],100 mm of mercury
same,gastric secretion after administration per os,[7],no gastric secretion
same,reduction of arterial pressure,[12],40 mm of mercury
same,Chymosin Output,[13]; 1st hour (basal secretion),16.0 ± 0.008 units per hour
same,Pepsin Output,[13]; 1st hour (basal secretion),3.7 ± 1.2 units per hour
same,"Secretion, milliequivalents per hour",[13]; 1st hour (basal secretion),7.0 ± 1.2 Milliequivalents per hour
same,Chymosin Output,[13]; 2nd hour,16.4 ± 0.04 units per hour
same,Pepsin Output,[13]; 2nd hour,4.8 ± 3.0 units per hour
same,"Secretion, milliequivalents per hour",[13]; 2nd hour,19.4 ± 1.6 Milliequivalents per hour
same,Free Acidity,[14],81.7+21 units
same,HCl Output,[14],12+0.4 milliequivalents per hour
same,Peak HCl Output,[14],8.8+0.2 milliequivalents
same,Total Acidity,[14],92.0+23 units
same,production of maximum level of hydrochloric acid secretion in the stomach,[8],can produce a maximum level of hydrochloric acid secretion
same,"% of difference (fluctuations) of total acidity, first and second tests",[15],0-53%
same,Average difference of total acidity,[15],33%
CNC(=S)NCCSCc1nc[nH]c1C [methiamide],prevention of thidazine secretory effect,[16],completely prevented
"CSCC[C@H](NC(=O)[C@H](Cc1c[nH]c2ccccc12)NC(=O)CCNC(=O)OC(C)(C)C)C(=O)N[C@@H](CC(=O)O)C(=O)N[C@@H](Cc1ccccc1)C(N)=O [pentagastrin, reference compound]",side effects,[4]; patients,can produce allergic and anaphylactic reactions as a result of repeated administrations
same,secretory effect per os,[1],no secretory effect is produced
same,duration of effect of a single dose,[1]; single dose,does not last long
same,level of secretion,[1]; sufficient dose,can produce a maximum level of secretion
same,HCl Concentration,[17]; 1st hour (basal secretion),35.3 milliequivalents per liter
same,HCl Concentration,[17]; 2nd hour (response to drug),94.0 milliequivalents per liter
same,"Gastric Juice, Δ%",[17]; 2nd versus 1st hour,+63.7%
same,"Hourly HCl output, Δ%",[17]; 2nd versus 1st hour,+345.9%
same,Hourly HCl output,[17]; 1st hour (basal secretion),3.7 milliequivalents per hour
same,Hourly HCl output,[17]; 2nd hour (response to drug),16.5 milliequivalents per hour
same,Gastric Juice,"[17]; pentagastrin 6 mg/kg, 1st hour (basal secretion)",106.3 ml per hour
same,Gastric Juice,"[17]; pentagastrin 6 mg/kg, 2nd hour (response to drug)",174.0 ml per hour
same,"HCl Concentration, Δ%","[17]; pentagastrin 6 mg/kg, 2nd versus 1st hour",+166.3%
same,Chymosin Output,[13]; 1st hour (basal secretion),157.3 ± 5.9 units per hour
same,Pepsin Output,[13]; 1st hour (basal secretion),3.3 ± 0.8 units per hour
same,"Secretion, milliequivalents per hour",[13]; 1st hour (basal secretion),7.4 ± 0.8 Milliequivalents per hour
same,Pepsin Output,[13]; 2nd hour,19.3 ± 3.8 units per hour
same,"Secretion, milliequivalents per hour",[13]; 2nd hour,24.8 ± 1.5 Milliequivalents per hour
